Source: patent publication US10081630B2, “Radioactive halogen-labeled pyrido [1,2-A] benzimidazole derivative compound” (KYOTO UNIVERSITY, priority 2015, dated 2018)

Legend:
[1] = Evaluation of in vivo radioactivity distribution in normal mouse; settings: normal ddY male mice, tail vein; for radioactivity distribution, Blood / radioactivity distribution, Brain / radioactivity distribution, Heart / radioactivity distribution, Intestine / radioactivity distribution, Kidney / radioactivity distribution, Liver / radioactivity distribution, Lung / radioactivity distribution, Pancreas / radioactivity distribution, Spleen / radioactivity distribution, Stomach / radioactivity distribution, Thyroid gland: mean (SD)
Experimental: (Evaluation 2) Evaluation of In Vivo Radioactivity Distribution in Normal Mouse
Each compound of [^125I]BIP-NMe2, [^125I]BIP-OMe, and [^125I]BIP-Me synthesized according to the method shown in Example 7 was diluted with saline containing 10 vol % ethanol and 0.1 vol % Tween 80. Each radioactive iodine-labeled BIP derivative compound was administered to a group of 5-week-old ddY male mice (26 to 28 g; each group involved 5 mice) from the tail veins thereof at 19.6 to 29.4 kBq (100 μL) per mouse. After 2, 10, 30, or 60 minutes, the mice were slaughtered. After blood collection, the organs were taken out, and their weights and radioactivity were measured.
In Tables 2 to 4, the numerical values shown in the column “Time after administration” are means of % ID for the stomach and the thyroid gland and means of % ID/g for the other tissues with standard deviation (SD) shown in parenthesis.

[2] = test system: tau accumulated in the brain with AD; experiment: In vitro autoradiography using autopsied brain tissue of Alzheimer's disease patient; assay type: binding, human
Experimental: (Evaluation 1) In Vitro Autoradiography Using Autopsied Brain Tissue of Alzheimer's Disease Patient (1) In Vitro Autoradiography
Autopsied brain tissue sections of an Alzheimer's disease (AD) patient (sections from a frontal lobe site and a temporal lobe site, 6 μm) were used, which were provided from Graduate School of Medicine, Kyoto University and National Cerebral and Cardiovascular Center Hospital. Deparaffinization treatment was performed by washing with xylene (15 min×2), ethanol (1 min×2), a 90 vol % aqueous ethanol solution (1 min×1), an 80 vol % aqueous ethanol solution (1 min×1), a 70 vol % aqueous ethanol solution (1 min×1), and purified water (2.5 min×2). A 10 vol % aqueous ethanol solution of each radioactive iodine-labeled BIP derivative compound (370 kBq/mL) obtained by the method shown in Example 7 was added thereto, and the tissue sections were incubated at room temperature for 2 hours. The tissue sections were washed with a 50 vol % aqueous ethanol solution (1 hr×1), then exposed to an imaging plate (BAS-SR2025 manufactured by Fujifilm Corp.), and analyzed using a bioimaging analyzer (bioimaging analyzer BAS-5000 manufactured by Fujifilm Corp.). Multi Gauge manufactured by Fujifilm Corp. was used in quantitative analysis.
FIGS. 5E and 5F show the results obtained using [^125I]BIP-NMe2. FIGS. 5G and 5H show the results obtained using [^125I]BIP-OMe. FIGS. 5I and 5J show the results obtained using [^125I]BIP-Me. FIGS. 5E, 5G, and 5I show the results obtained using the brain tissue section of the frontal lobe. FIGS. 5F, 5H, and 5J show the results obtained using the brain tissue section of the temporal lobe.
Tau and Aβ were immunostained using sections adjacent to the autopsied AD brain tissue sections used in autoradiography. An anti-phosphorylated tau monoclonal antibody (AT8, manufactured by Thermo Fisher Scientific Inc.) was used as a primary antibody in the immunostaining of tau, and an anti-Aβ1-42 monoclonal antibody (BC05, manufactured by Wako Pure Chemical Industries, Ltd.) was used as a primary antibody in the immunostaining of Aβ. Deparaffinization treatment was performed by washing with xylene (15 min×2), ethanol (1 min×2), a 90 vol % aqueous ethanol solution (1 min×1), an 80 vol % aqueous ethanol solution (1 min×1), a 70 vol % aqueous ethanol solution (1 min×1), and purified water (2.5 min×2). The antigens were retrieved by autoclaving (15 min) in a 0.01 mol/L citrate buffer solution (pH 6.0) and formic acid treatment (5 min). The tissue sections were washed with running water (5 min) and then washed with PBS-Tween 20 (2 min×1). The tissue sections were reacted with primary antibody solutions at room temperature for 1 hour and then washed with PBS-Tween 20 (5 min×3). The tissue sections were reacted with Histofine Simple Stain MAX-PO (MULTI) (manufactured by Nichirei Biosciences Inc.) at room temperature for 30 minutes and then washed with PBS-Tween 20 (3 min×3) and TBS (5 min×1). Finally, the tissue sections were reacted with a DAB solution at room temperature for 1 minute. The tissue sections were washed with distilled water (1 min×1) to terminate the reaction. The brain tissue sections were mounted on slides and then observed under a microscope (BZ-9000 manufactured by Keyence Corporation).
FIGS. 5A and 5B show the results obtained using the brain tissue section of the frontal lobe. FIGS. 5C and 5D show the results obtained using the brain tissue section of the temporal lobe. FIGS. 5A and 5C show the results of immunostaining with the antibody against tau. FIGS. 5B and 5D show the results of immunostaining with the antibody against Aβ.

With `CN(C)c1ccn2c(c1)nc1cc([125I])ccc12` [[^125I]BIP-NMe2, 7-[^125I]iodo-3-dimethylaminopyrido[1,2-a]benzimidazole] the “clearance from the brain” value [1] was “rapid clearance from the brain”, the “transfer to the brain early after administration” value [1] was “high transfer to the brain” and the “radioactivity distribution, Blood” value ([1]; 2 min after administration) was 2.91(0.75) % ID/g. For the same compound, the “radioactivity distribution, Brain” value ([1]; 2 min after administration) was 3.98(0.32) % ID/g, the “radioactivity distribution, Heart” value ([1]; 2 min after administration) was 6.38(1.09) % ID/g and the “radioactivity distribution, Intestine” value ([1]; 2 min after administration) was 3.07(0.52) % ID/g. The “radioactivity distribution, Kidney” value ([1]; 2 min after administration) was 14.3(1.91) % ID/g, the “radioactivity distribution, Liver” value ([1]; 2 min after administration) was 9.78(2.50) % ID/g and the “radioactivity distribution, Lung” value ([1]; 2 min after administration) was 8.80(1.70) % ID/g. For the same compound, the “radioactivity distribution, Pancreas” value ([1]; 2 min after administration) was 5.66(1.03) % ID/g, the “radioactivity distribution, Spleen” value ([1]; 2 min after administration) was 2.97(0.92) % ID/g and the “radioactivity distribution, Stomach” value ([1]; 2 min after administration) was 1.71(0.43) % ID. For the same compound, the “radioactivity distribution, Thyroid gland” value ([1]; 2 min after administration) was 0.05(0.03) % ID, the “radioactivity distribution, Blood” value ([1]; 10 min after administration) was 1.48(0.18) % ID/g and the “radioactivity distribution, Brain” value ([1]; 10 min after administration) was 1.66(0.16) % ID/g. For the same compound, the “radioactivity distribution, Heart” value ([1]; 10 min after administration) was 2.53(0.24) % ID/g, the “radioactivity distribution, Intestine” value ([1]; 10 min after administration) was 7.45(0.50) % ID/g and the “radioactivity distribution, Kidney” value ([1]; 10 min after administration) was 17.0(1.70) % ID/g. For the same compound, the “radioactivity distribution, Liver” value ([1]; 10 min after administration) was 18.1(0.53) % ID/g, the “radioactivity distribution, Lung” value ([1]; 10 min after administration) was 3.59(0.43) % ID/g and the “radioactivity distribution, Pancreas” value ([1]; 10 min after administration) was 4.77(0.27) % ID/g. The “radioactivity distribution, Spleen” value ([1]; 10 min after administration) was 5.15(0.84) % ID/g, the “radioactivity distribution, Stomach” value ([1]; 10 min after administration) was 3.30(0.49) % ID and the “radioactivity distribution, Thyroid gland” value ([1]; 10 min after administration) was 0.03(0.01) % ID. For the same compound, the “radioactivity distribution, Blood” value ([1]; 30 min after administration) was 1.18(0.26) % ID/g, the “radioactivity distribution, Brain” value ([1]; 30 min after administration) was 0.38(0.03) % ID/g and the “radioactivity distribution, Heart” value ([1]; 30 min after administration) was 1.00(0.15) % ID/g. For the same compound, the “radioactivity distribution, Intestine” value ([1]; 30 min after administration) was 14.5(3.43) % ID/g, the “radioactivity distribution, Kidney” value ([1]; 30 min after administration) was 7.45(1.11) % ID/g and the “radioactivity distribution, Liver” value ([1]; 30 min after administration) was 12.7(1.35) % ID/g. The “radioactivity distribution, Lung” value ([1]; 30 min after administration) was 1.77(0.31) % ID/g, the “radioactivity distribution, Pancreas” value ([1]; 30 min after administration) was 1.51(0.19) % ID/g and the “radioactivity distribution, Spleen” value ([1]; 30 min after administration) was 2.97(0.44) % ID/g. The “radioactivity distribution, Stomach” value ([1]; 30 min after administration) was 6.35(1.13) % ID, the “radioactivity distribution, Thyroid gland” value ([1]; 30 min after administration) was 0.02(0.01) % ID and the “radioactivity distribution, Blood” value ([1]; 60 min after administration) was 0.93(0.23) % ID/g. The “radioactivity distribution, Brain” value ([1]; 60 min after administration) was 0.16(0.01) % ID/g, the “radioactivity distribution, Heart” value ([1]; 60 min after administration) was 0.63(0.05) % ID/g and the “radioactivity distribution, Intestine” value ([1]; 60 min after administration) was 23.5(3.65) % ID/g. The “radioactivity distribution, Kidney” value ([1]; 60 min after administration) was 5.45(1.90) % ID/g, the “radioactivity distribution, Liver” value ([1]; 60 min after administration) was 5.82(0.91) % ID/g and the “radioactivity distribution, Lung” value ([1]; 60 min after administration) was 0.99(0.07) % ID/g. For the same compound, the “radioactivity distribution, Pancreas” value ([1]; 60 min after administration) was 0.80(0.15) % ID/g, the “radioactivity distribution, Spleen” value ([1]; 60 min after administration) was 1.97(0.25) % ID/g and the “radioactivity distribution, Stomach” value ([1]; 60 min after administration) was 7.59(1.39) % ID. The “radioactivity distribution, Thyroid gland” value ([1]; 60 min after administration) was 0.01(0.00) % ID, the “radioactivity accumulation in the brain tissue section of the frontal lobe” value ([2]; AD patient autopsied brain section, frontal lobe, 370 kBq/mL, 2 hours room temperature) was “none” and the “radioactivity accumulation in the brain tissue section of the temporal lobe” value ([2]; AD patient autopsied brain section, temporal lobe, 370 kBq/mL, 2 hours room temperature) was “exhibited radioactivity accumulation in only the brain tissue section of the temporal lobe”. For the same compound, the “nonspecific binding to the brain white matter” value ([2]; AD patient autopsied brain sections) was “low” and the “visualization of tau (autoradiography compared with tau and Aβ immunostaining)” value ([2]; AD patient temporal lobe section, adjacent sections immunostained (AT8, BC05)) was “clearly visualizes tau accumulated in the brain with AD”.
